# Measured values reported in patent US20150158862A1, “1,3-DIHYDRO-2H-BENZIMIDAZOL-2-ONE DERIVATIVES SUBSTITUTED WITH HETEROCYCLES AS RESPIRATORY SYNCYTIAL VIRUS ANTIVIRAL AGENTS” (Janssen R&D Ireland, priority 2012, published 2015).
# Experiments:
# rgRSV224 virus = assay: Antiviral activity: inhibition of GFP expression of rgRSV224 virus in HeLa cells; type: cell-based, respiratory syncytial virus (RSV); settings: human respiratory syncytial virus, 72 h, read-out: WT activity EC50
# Procedure: (§1) Black 96-well clear-bottom microtiter plates (Corning, Amsterdam, The Netherlands) were filled in duplicate using a customized robot system with serial 4-fold dilutions of compound in a final volume of 50 μl culture medium [RPMI medium without phenol red, 10% FBS, 0.04% gentamycin (50 mg/ml) and 0.5% DMSO]. Then, 100 μl of a HeLa cell suspension (5×10^4 cells/ml) in culture medium was added to each well followed by the addition of 50 μl rgRSV224 (MOI=0.02) virus in culture medium using a multidrop dispenser (Thermo Scientific, Erembodegem, Belgium). rgRSV224 virus is an engineered virus that includes an additional GFP gene (Hallak et al, 2000) and was in-licensed from the NIH (Bethesda, Md., USA). Medium, virus- and mock-infected controls were included in each test. Cells were incubated at 37° C. in a 5% CO2 atmosphere. Three days post-virus exposure, viral replication was quantified by measuring GFP expression in the cells by a MSM laser microscope (Tibotec, Beerse, Belgium). The EC50 was defined as the 50% inhibitory concentration for GFP expression. In parallel, compounds were incubated for three days in a set of white 96-well microtitier plates (Corning) and the cytotoxicity of compounds in HeLa cells was determined by measuring the ATP content of the cells using the ATPlite kit (PerkinElmer, Zaventem, Belgium) according to the manufacturer's instructions. The CC50 was defined as the 50% concentration for cytotoxicity.
# in vitro = type: cell-based; settings: human
# Procedure: as §1
Compound,EC50 (rgRSV224 virus),CC50 at 3 days (in vitro)
"CS(=O)(=O)CCCn1c(Cn2c(=O)n(CC(F)(F)F)c3c(Cl)cccc32)cc2cc(Cl)ccc21 [Compound P1, 4-chloro-1-((5-chloro-1-(3-(methylsulfonyl)-propyl)-1H-indol-2-yl)methyl)-3-(2,2,2-trifluoroethyl)-1H-benzo[d]imidazo-2(3H)-one]",398 nM,> 100000 nM
O=c1n(Cc2cc3cc(Cl)ccc3n2CCCC(F)(F)F)c2cncc(Cl)c2n1CC(F)(F)F [Compound P2],100 nM,> 100000 nM
CS(=O)(=O)CCCn1c(Cn2c(=O)n(C3CC3)c3c(Cl)cncc32)cc2cc(Cl)ccc21 [Compound P3],19.9 nM,> 100000 nM
Cc1cncc2c1n(C1CC1)c(=O)n2Cc1cc2cc(Cl)ccc2n1CCCS(C)(=O)=O [Compound P4],19.9 nM,> 100000 nM
"CS(=O)(=O)CCCn1c(Cn2c(=O)n(CC(F)(F)F)c3c(Cl)cncc32)cc2cc(Cl)ccc21 [Compound P5, 7-chloro-3-((5-chloro-1-(3-(methylsulfonyl)propyl)-1H-indol-2-yl)-methyl)-1-(2,2,2-trifluoroethyl)-1H-imidazo[4,5-c]pyridin-2(3H)-one]",25.1 nM,31600 nM
CS(=O)(=O)CCCn1c(Cn2c(=O)n(C3CC3)c3c(Cl)cccc32)cc2cc(Cl)ccc21 [Compound P6],631 nM,31600 nM
"O=c1n(Cc2cc3cc(Cl)ccc3n2CCCC(F)(F)F)c2cccc(Cl)c2n1CC(F)(F)F [Compound P7, 4-chloro-1-((5-chloro-1-(4,4,4-trifluorobutyl)-1H-indol-2yl)methyl)-3-(2,2,2-trifluoroethyl)-1H-benzo [d]imidazol-2(3H)-one]",,> 100000 nM
"Cc1cncc2c1n(CC(F)(F)F)c(=O)n2Cc1cc2cc(Cl)ccc2n1CCCS(C)(=O)=O [Compound P8, 3-((5-chloro-1-(3-(methylsulfonyl)propyl)-1H-indol-2-yl)methyl)-7-methyl-1-(2,2,2-trifluoroethyl)-1H-imidazo[4,5-c]pyridin-2(3H)-one]",100 nM,50100 nM
"CC(C)CCn1c(Cn2c(=O)n(C3CC3)c3c(Cl)cccc32)nc2nc(Cl)ccc21 [Compound P9, 4-chloro-1-((5-chloro-1-isopentyl-1H-imidazo[4,5-b]pyridin-2-yl)-methyl)-3-cyclopropyl-1H-benzo[d]imidazol-2(3H)-one]",794 nM,> 25000 nM
"Cc1cccc2c1n(C1CC1)c(=O)n2Cc1nc2nc(Cl)ccc2n1CCC(C)C [Compound P10, 1-((5-chloro-1-isopentyl-1H-imidazo[4,5-b]pyridin-2-yl)methyl)-3-cyclopropyl-4-methyl-1H-benzo[d]imidazol-2(3H)-one]",398 nM,> 50000 nM
"Cc1cccc2c1n(C1CC1)c(=O)n2Cc1cc2nc(Cl)ccc2n1CCCC(F)(F)F [Compound P11, 1-((5-chloro-1-(4,4,4-trifluorobutyl)-1H-pyrrolo[3,2-b]pyridin-2-yl)-methyl)-3-cyclopropyl-4-methyl-1H-benzo[d]imidazol-2(3H)-one]",6310 nM,12600 nM
